Laboratory results: patent publication US4452812A, “Organic complex of platinum, its preparation and its use for treating malignant tumors” (Sanofi, priority 1980, dated 1984)

Tested on: baboon
Test: Preliminary toxicological study in the baboon
Type: in vivo
Set-up: creatine level / Granulocytes / Platelets: unit not given here
Method: In order to find out the maximum tolerable dose, two baboons, identified by no 1 and no 2, received 100 mg/kg and 150 mg/kg respectively without prehydration. Hydration was performed on baboon no 3 which received a dose of 200 mg/kg.
The compound was injected into the femoral vein during 5 to 10 minutes. Baboon No. 3 (200 mg/kg) received 700 ml of physiological serum by intravenous route. Baboons Nos. 1 and 2 received 1000 ml by sub-cutaneous route.
Gastro-intestinal toxicity was the first type of toxicity to appear and generally manifested itself 1 to 2 hours after injection of the compound. […] D0 was the day of treatment and a sample was taken before the compound was injected.
The results on D0 were therefore control values.

[1] = baboon No 1, 100 mg/kg i.v., D2
[2] = baboon No 1, 100 mg/kg i.v., D6
[3] = baboon No 1, 100 mg/kg i.v., D16
[4] = baboon No 1, 100 mg/kg i.v., D30
[5] = baboon No 1, 100 mg/kg i.v., D37
[6] = baboon No 1, 100 mg/kg i.v., D38
[7] = baboon No 1, 100 mg/kg i.v., D41
[8] = baboon No 1, 100 mg/kg i.v., D48
[9] = baboon No 1, 100 mg/kg i.v., D57
[10] = baboon No 1, 100 mg/kg i.v., D62
[11] = baboon No 1, 100 mg/kg i.v., D76
[12] = baboon No 1, 100 mg/kg i.v., D79
[13] = baboon No 1, 100 mg/kg i.v., D85
[14] = baboon No 1, 100 mg/kg i.v., D90
[15] = baboon No 1, 100 mg/kg i.v., D100
[16] = baboon No 1, 100 mg/kg i.v., D105
[17] = baboon No 1, 100 mg/kg i.v., D106
[18] = baboon No 1, 100 mg/kg i.v., D111
[19] = baboon No 1, 100 mg/kg i.v., D122
[20] = baboon No 1, 100 mg/kg i.v., D129
[21] = baboon No 1, 100 mg/kg i.v., D134
[22] = baboon No 1, 100 mg/kg i.v., D140
[23] = baboon No 2, 150 mg/kg i.v., D1
[24] = baboon No 2, 150 mg/kg i.v., D4
[25] = baboon No 2, 150 mg/kg i.v., D11
[26] = baboon No 3, 200 mg/kg i.v., D4
[27] = baboon No 3, 200 mg/kg i.v., D6
[28] = baboon No 3, 200 mg/kg i.v., D12
[29] = baboon No 3, 200 mg/kg i.v., D15
[30] = baboon No 3, 200 mg/kg i.v., D18
[31] = baboon No 3, 200 mg/kg i.v., D24
[32] = baboon No 3, 200 mg/kg i.v., D30
[33] = baboon No 3, 200 mg/kg i.v., D40

In the case of `NC1CCCCC1N.O=C([O-])CC(C(=O)[O-])C([O-])C(=O)[O-].[H+].[H+].[Pt+2]` (stereo not drawn) [PHIC, cis-isocitrato (1,2-diaminocyclohexane) platinum (II)], the nephrotoxic effect (100 mg/kg i.v., absence of hydration) is reported as “no nephrotoxic effect was observed”, the “day on which creatinine levels return to normal values” (200 mg/kg i.v. with hydration) is reported as 18 days and the nephrotoxicity (200 mg/kg i.v. with hydration) is reported as “nephtotoxicity is detected”. For the same compound, the “vomiting (severity)” value (100-200 mg/kg i.v.) was “vomiting was not profuse”, the “Quick plasma prothrombin time” value (baboon No 1, 100 mg/kg i.v., D1) was 75% and the Creatinine [1] was 110 μmols/l. For the same compound, the “Fibrinogen I” value [1] was 2.25 g/L, the “Quick plasma prothrombin time” value [1] was 80% and the Creatinine [2] was 91 μmols/l. For the same compound, the “Fibrinogen I” value [2] was 2.40 g/L, the Granulocytes [2] was 2480 and the Platelets [2] was 526000. For the same compound, the “Proaccelerin V” value [2] was 100%, the “Proconvertin VII + Stuart factor X” value [2] was 70% and the “Prothrombin II” value [2] was 95%. For the same compound, the “Quick plasma prothrombin time” value [2] was 65%, the Weight [2] was 7.7 kg and the Creatinine [3] was 105 μmols/l. The “Fibrinogen I” value [3] was 1.95 g/L, the Granulocytes [3] was 4560 and the Platelets [3] was 414000. For the same compound, the “Quick plasma prothrombin time” value [3] was 95%, the Weight [3] was 8.4 kg and the Creatinine [4] was 138 μmols/l. The “Fibrinogen I” value [4] was 1.52 g/L, the Granulocytes [4] was 3969 and the Platelets [4] was 414000. The “Quick plasma prothrombin time” value [4] was 85%, the Creatinine [5] was 99 μmols/l and the “Fibrinogen I” value [5] was 1.46 g/L. The Granulocytes [5] was 2989, the Platelets [5] was 362000 and the “Quick plasma prothrombin time” value [5] was 85%. The Weight [5] was 8.35 kg, the Creatinine [6] was 85 μmols/l and the “Fibrinogen I” value [6] was 1.85 g/L. For the same compound, the Granulocytes [6] was 4824, the Platelets [6] was 299000 and the “Quick plasma prothrombin time” value [6] was 85%. The Creatinine [7] was 102 μmols/l, the “Fibrinogen I” value [7] was 2.72 g/L and the Granulocytes [7] was 4212. For the same compound, the Platelets [7] was 371000, the “Quick plasma prothrombin time” value [7] was 100% and the Creatinine [8] was 136 μmols/l. The “Fibrinogen I” value [8] was 2.70 g/L, the Granulocytes [8] was 3696 and the Platelets [8] was 708000. The “Quick plasma prothrombin time” value [8] was 95%, the Weight [8] was 7.6 kg and the Creatinine [9] was 96 μmols/l. For the same compound, the “Fibrinogen I” value [9] was 2.67 g/L, the Granulocytes [9] was 2498 and the Platelets [9] was 329000. For the same compound, the “Quick plasma prothrombin time” value [9] was 90%, the Weight (baboon No 1, 100 mg/kg i.v., D58) was 8.45 kg and the Creatinine [10] was 136 μmols/l. For the same compound, the “Fibrinogen I” value [10] was 1.86 g/L, the Granulocytes [10] was 3726 and the Platelets [10] was 378000. For the same compound, the “Quick plasma prothrombin time” value [10] was 50%, the Creatinine [11] was 121 μmols/l and the “Fibrinogen I” value [11] was 1.75 g/L. For the same compound, the Granulocytes [11] was 1071, the Platelets [11] was 375000 and the “Quick plasma prothrombin time” value [11] was 95%. For the same compound, the Creatinine [12] was 138 μmols/l, the “Fibrinogen I” value [12] was 2.10 g/L and the Granulocytes [12] was 2541. The Platelets [12] was 382000, the “Quick plasma prothrombin time” value [12] was 95% and the Weight (baboon No 1, 100 mg/kg i.v., D84) was 7.93 kg. For the same compound, the Creatinine [13] was 97 μmols/l, the “Fibrinogen I” value [13] was 2.08 g/L and the Granulocytes [13] was 3599. For the same compound, the Platelets [13] was 549000, the “Proaccelerin V” value [13] was 100% and the “Proconvertin VII + Stuart factor X” value [13] was 90%. The “Quick plasma prothrombin time” value [13] was 85%, the Creatinine [14] was 96 μmols/l and the Granulocytes [14] was 1917. For the same compound, the Platelets [14] was 685000, the Creatinine [15] was 110 μmols/l and the “Fibrinogen I” value [15] was 2.50 g/L. For the same compound, the Granulocytes [15] was 3230, the Platelets [15] was 340000 and the “Quick plasma prothrombin time” value [15] was 95%. The Creatinine [16] was 60 μmols/l, the “Fibrinogen I” value [16] was 2.25 g/L and the Granulocytes [16] was 2030. The Platelets [16] was 266000, the “Quick plasma prothrombin time” value [16] was 95% and the Weight [16] was 8.59 kg. The Creatinine [17] was 120 μmols/l, the “Fibrinogen I” value [17] was 2.20 g/L and the Granulocytes [17] was 10120. For the same compound, the Platelets [17] was 231000, the “Quick plasma prothrombin time” value [17] was 75% and the Creatinine [18] was 102 μmols/l. For the same compound, the “Fibrinogen I” value [18] was 2.20 g/L, the Granulocytes [18] was 1121 and the Platelets [18] was 345000. The “Proaccelerin V” value [18] was 100%, the “Proconvertin VII + Stuart factor X” value [18] was 39% and the “Prothrombin II” value [18] was 70%. The “Quick plasma prothrombin time” value [18] was 48%, the “Fibrinogen I” value [19] was 2.10 g/L and the Granulocytes [19] was 1232. For the same compound, the Platelets [19] was 348000, the “Quick plasma prothrombin time” value [19] was 100% and the BUN (baboon No 1, 100 mg/kg i.v., D122, normal range 3-7 mmol/l) was 4.5 mmol/L. The Creatinine [20] was 90 μmols/l, the “Fibrinogen I” value [20] was 2.15 g/L and the Granulocytes [20] was 5406. The Platelets [20] was 508000, the “Quick plasma prothrombin time” value [20] was 100% and the Weight (baboon No 1, 100 mg/kg i.v., D133) was 7.65 kg. The Creatinine [21] was 126 μmols/l, the Granulocytes [21] was 7245 and the Platelets [21] was 580000. For the same compound, the Creatinine [22] was 114 μmols/l, the “Fibrinogen I” value [22] was 2.50 g/L and the Granulocytes [22] was 4794. The Platelets [22] was 441000, the “Quick plasma prothrombin time” value [22] was 100% and the “creatine level” value (baboon No 2, 150 mg/kg i.v.) was 1552. The death (baboon No 2, 150 mg/kg i.v.) was “died on D11”, the “food and water intake” value (baboon No 2, 150 mg/kg i.v.) was “neither eaten nor drunk for 11 days” and the Creatinine [23] was 96 μmols/l. The “Fibrinogen I” value [23] was 1.46 g/L, the Granulocytes [23] was 9672 and the Platelets [23] was 261000. The “Proaccelerin V” value [23] was 70%, the “Proconvertin VII + Stuart factor X” value [23] was 62% and the “Prothrombin II” value [23] was 42%. The “Quick plasma prothrombin time” value [23] was 60%, the Creatinine [24] was 245 μmols/l and the “Fibrinogen I” value [24] was 2.82 g/L. For the same compound, the Granulocytes [24] was 1988, the Platelets [24] was 212000 and the “Quick plasma prothrombin time” value [24] was 85%. For the same compound, the Creatinine [25] was 1552 μmols/l, the “Fibrinogen I” value [25] was 4.20 g/L and the Granulocytes [25] was 555. For the same compound, the Platelets [25] was 174000, the “Proaccelerin V” value [25] was 100% and the “Proconvertin VII + Stuart factor X” value [25] was 55%. For the same compound, the “Prothrombin II” value [25] was 55%, the “Quick plasma prothrombin time” value [25] was 55% and the Weight [25] was 5.5 kg. For the same compound, the Creatinine [26] was 140 μmols/l, the “Fibrinogen I” value [26] was 2.70 g/L and the Granulocytes [26] was 4536. For the same compound, the Platelets [26] was 70000, the “Proaccelerin V” value [26] was 100% and the “Proconvertin VII + Stuart factor X” value [26] was < 5%. The “Prothrombin II” value [26] was 30%, the “Quick plasma prothrombin time” value [26] was 10% and the Weight [26] was 6.25 kg. The Creatinine [27] was 350 μmols/l, the “Fibrinogen I” value [27] was 3.00 g/L and the Granulocytes [27] was 5236. The Platelets [27] was 208000, the “Proaccelerin V” value [27] was 100% and the “Proconvertin VII + Stuart factor X” value [27] was 25%. For the same compound, the “Prothrombin II” value [27] was 25%, the “Quick plasma prothrombin time” value [27] was 30% and the Creatinine [28] was 646 μmols/l. The “Fibrinogen I” value [28] was 4.80 g/L, the Granulocytes [28] was 7905 and the Platelets [28] was 241000. For the same compound, the “Quick plasma prothrombin time” value [28] was 85%, the Weight [28] was 5.31 kg and the Creatinine [29] was 265 μmols/l. For the same compound, the “Fibrinogen I” value [29] was 3.85 g/L, the Granulocytes [29] was 3550 and the Platelets [29] was 114000. The “Quick plasma prothrombin time” value [29] was 90%, the Creatinine [30] was 118 μmols/l and the “Fibrinogen I” value [30] was 2.60 g/L. The Granulocytes [30] was 722, the Platelets [30] was 312000 and the “Quick plasma prothrombin time” value [30] was 100%. For the same compound, the Creatinine [31] was 97 μmols/l, the “Fibrinogen I” value [31] was 2.00 g/L and the Granulocytes [31] was 4872. The Platelets [31] was 366000, the “Quick plasma prothrombin time” value [31] was 100% and the Weight [31] was 5.6 kg. For the same compound, the Creatinine [32] was 104 μmols/l, the “Fibrinogen I” value [32] was 2.25 g/L and the Granulocytes [32] was 10752. The Platelets [32] was 457000, the “Quick plasma prothrombin time” value [32] was 95% and the Weight [32] was 5.9 kg. For the same compound, the Creatinine [33] was 94 μmols/l, the “Fibrinogen I” value [33] was 1.50 g/L and the Granulocytes [33] was 4731. The Platelets [33] was 299000, the “Quick plasma prothrombin time” value [33] was 95% and the Weight [33] was 6.33 kg. For the same compound, the “toxicity (in words)” value (baboons) was “Extremely low toxicity”.
